From patent US20210251991A1, “SUBSTITUTED 2,2'-BIPYRIMIDINYL COMPOUNDS, ANALOGUES THEREOF, AND METHODS USING SAME” (priority 2018, published 2021)

tested on: HBsAg in HepG2.2.15 cells; experiment: HBsAg assay: inhibition of HBsAg in HepG2.2.15 cells (chemiluminescence immunoassay of supernatant); format: cell-based, hepatitis B virus; details: Hepatitis B virus, HepG2.2.15, 144 h, read-out: sAg EC50, HepG2.2.15 cells, supernatant collected at day 6 after exposure, HBsAg CLIA
Procedure: Inhibition of HBsAg was determined in HepG2.2.15 cells. Cells were maintained in culture medium containing 10% fetal calf serum, […], Glutamine, penicillin/streptomycin. Cells were seeded in 96-well collagen-coated plate at a density of 30,000 cells/well. Serially diluted compounds were added to cells next day at the final DMSO concentration of 0.5%. Cells were incubated with compounds for 2-3 days, after which medium was removed. Fresh medium containing compounds was added to cells for additional 3-4 days. At day 6 after exposure of compounds, supernatant was collected, the HBsAg immunoassay (microplate-based chemiluminescence immunoassay kits, CLIA, Autobio Diagnosics Co., Zhengzhou, China, Catalog #CL0310-2) was used to determine the level of HBsAg according to manufactory instruction. Dose-response curves were generated and the EC50 value (effective concentrations that achieved 50% inhibitory effect) were determined using XLfit software. In addition, cells were seeded at a density of 5,000 cells/well for determination of cell viability in the presence and absence of compounds by using CellTiter-Glo reagent (Promega).

SMILES | EC50 [nM]
CCC1c2cc(OC)c(F)cc2CN1c1ccnc(-c2ncccn2)n1 (stereo not drawn) [Example 76, 2-([2,2′-Bipyrimidin]-4-yl)-1-ethyl-5-fluoro-6-methoxyisoindoline] | 120
COc1cc2c(cc1OC)C1CCC2N1c1nc(-c2ncccn2)ncc1F [Example 87, 9-(5-Fluoro-[2,2′-bipyrimidin]-4-yl)-6,7-dimethoxy-1,2,3,4-tetrahydro-1,4-epiminonaphthalene] | 1000
CCC1c2cc(F)c(O)cc2CN1c1nc(-c2ncccn2)ncc1F (stereo not drawn) [Example 75, 1-Ethyl-6-fluoro-2-(5-fluoro-[2,2′-bipyrimidin]-4-yl)isoindolin-5-ol] | 700
CC1CN(c2cnc(-c3ncccn3)nc2)Cc2ccccc21 (stereo not drawn) [Example 5, 2-([2,2′-Bipyrimidin]-5-yl)-4-methyl-1,2,3,4-tetrahydroisoquinoline] | 34000
CCC1c2ccccc2CCN1c1ccnc(-c2ncccn2)n1 (stereo not drawn) [Example 13, 2-([2,2′-Bipyrimidin]-4-yl)-1-ethyl-1,2,3,4-tetrahydroisoquinoline] | 500
CCC1c2cc(OC)c(OC)cc2CN1c1nc(-c2ncccn2)nc2ccoc12 (stereo not drawn) [Example 91, 4-(1-Ethyl-5,6-dimethoxyisoindolin-2-yl)-2-(pyrimidin-2-yl)furo[3,2-d]pyrimidine] | 150
CCC1c2ccccc2CCN1c1cnc2c(NC)nccc2c1 (stereo not drawn) [Example 124, 3-(1-Ethyl-3,4-dihydroisoquinolin-2(1H)-yl)-N-methyl-1,7-naphthyridin-8-amine] | 22000
CCC1c2cc(F)c(F)cc2CN1c1nc(-c2ncccn2)ncc1C1CC1 (stereo not drawn) [Example 54, 2-(5-Cyclopropyl-[2,2′-bipyrimidin]-4-yl)-1-ethyl-5,6-difluoroisoindoline] | 220
CCC1c2cc(F)c(OC)cc2CN1c1cnc(C(=O)Nc2nccn2C)nc1 (stereo not drawn) [Example 105, 5-(1-Ethyl-6-fluoro-5-methoxyisoindolin-2-yl)-N-(1-methyl-1H-imidazol-2-yl)pyrimidine-2-carboxamide] | 6000
CCC1c2ccc(F)c(F)c2CCN1c1ccnc(-c2ncccn2)n1 (stereo not drawn) [Example 39, 1-Ethyl-5,6-difluoro-2-(2-pyrimidin-2-ylpyrimidin-4-yl)-3,4-dihydro-1H-isoquinoline] | 590
CCC1c2cc(F)c(OC)cc2CN1c1nc(-c2ncccn2)ncc1F (stereo not drawn) [Example 70, 1-Ethyl-6-fluoro-2-(5-fluoro-[2,2′-bipyrimidin]-4-yl)-5-methoxyisoindoline] | 5
c1cnc(-c2ncc(N3C4CCC3c3ccccc34)cn2)nc1 [Example 22, 9-([2,2′-Bipyrimidin]-5-yl)-1,2,3,4-tetrahydro-1,4-epiminonaphthalene] | 21000
Fc1cc(F)c2c(c1)CN(c1ccnc(-c3ncccn3)n1)CC2 [Example 2, 2-([2,2′-Bipyrimidin]-4-yl)-5,7-difluoro-1,2,3,4-tetrahydroisoquinoline] | 1600
CCC1c2cc(OC)c(F)c(F)c2CCN1c1ccnc(-c2ncccn2)n1 (stereo not drawn) [Example 47, 1-Ethyl-5,6-difluoro-7-methoxy-2-(2-pyrimidin-2-ylpyrimidin-4-yl)-3,4-dihydro-1H-isoquinoline] | 480
CCC1c2cc(F)c(OC)cc2CN1c1ccnc(C(=O)NS(C)(=O)=O)n1 (stereo not drawn) [Example 104, 4-(1-Ethyl-6-fluoro-5-methoxyisoindolin-2-yl)-N-(methylsulfonyl)pyrimidine-2-carboxamide] | 5000
CCC1c2cc(OC)c(OC)cc2CN1c1nc(-c2ncccn2)ncc1C(C)C (stereo not drawn) [Example 62, 1-Ethyl-2-(5-isopropyl-[2,2′-bipyrimidin]-4-yl)-5,6-dimethoxyisoindoline] | 1000
c1cnc(-c2nccc(N3CC4CC3c3ccccc34)n2)nc1 (stereo not drawn) [Example 83, 2-([2,2′-Bipyrimidin]-4-yl)-1,2,3,4-tetrahydro-1,4-methanoisoquinoline] | 5000
Cc1cnc(-c2ncccn2)nc1N1C2CCC1c1ccccc12 [Example 85, 9-(5-Methyl-[2,2′-bipyrimidin]-4-yl)-1,2,3,4-tetrahydro-1,4-epiminonaphthalene] | 3000
CC1c2ccc(F)c(F)c2CCN1c1ccnc(-c2ncccn2)n1 (stereo not drawn) [Example 36, 2-([2,2′-Bipyrimidin]-4-yl)-5,6-difluoro-1-methyl-1,2,3,4-tetrahydroisoquinoline] | 480
CCC1c2cc(OC)c(OC)cc2CN1c1nc(-c2ncccn2)ncc1C (stereo not drawn) [Example 58, 1-Ethyl-5,6-dimethoxy-2-(5-methyl-[2,2′-bipyrimidin]-4-yl)isoindoline] | 2
CCC1c2cc(F)c(OC)cc2CCCN1c1ccnc(-c2ncccn2)n1 (stereo not drawn) [Example 135, 2-([2,2′-Bipyrimidin]-4-yl)-1-ethyl-8-fluoro-7-methoxy-2,3,4,5-tetrahydro-1H-benzo[c]azepine] | 1000
CCC1c2ccccc2CN1c1cnc(-c2ncccn2)nc1 (stereo not drawn) [Example 19, 2-([2,2′-Bipyrimidin]-5-yl)-1-ethylisoindoline] | 800
CC1CN(c2cnc(-c3ncccn3)nc2)C(=O)c2ccccc21 (stereo not drawn) [Example 16, 2-([2,2′-Bipyrimidin]-5 yl)-4-methyl-3,4-dihydroisoquinolin-1(2H)-one] | 9100
CCCC1c2ccccc2CCN1c1ccnc(-c2ncccn2)n1 (stereo not drawn) [Example 23, 2-([2,2′-Bipyrimidin]-4-yl)-1-propyl-1,2,3,4-tetrahydroisoquinoline] | 1000
c1cnc(-c2nccc(N3CCc4ccccc4C3)n2)nc1 [Example 9, 2-([2,2′-Bipyrimidin]-4-yl)-1,2,3,4-tetrahydroisoquinoline] | 8500

same assay, conditions: read-out: sAg EC50; HepG2.2.15 cells, supernatant collected at day 6 after exposure, HBsAg CLIA

SMILES | EC50 [nM]
CC1c2ccc(F)c(F)c2CCN1c1ccnc(-c2ncccn2)n1 (single isomer, unassigned) [Example 37, 2-([2,2′-Bipyrimidin]-4-yl)-5,6-difluoro-1-methyl-1,2,3,4-tetrahydroisoquinoline] | 310
CCC1c2cc(F)c(OC)cc2CN1c1nc(-c2ncccn2)ncc1-c1ccccc1 (single isomer, unassigned) [Example 67, 1-Ethyl-6-fluoro-5-methoxy-2-(5-phenyl-[2,2′-bipyrimidin]-4-yl)isoindoline] | 18000
CCC1c2cc(F)c(OC)cc2CN1c1cnc(-c2ncccn2)nc1 (single isomer, unassigned) [Example 90, 2-([2,2′-Bipyrimidin]-5-yl)-1-ethyl-6-fluoro-5-methoxyisoindoline] | 260
CCC1c2cc(F)c(OC)cc2CCN1c1cnc(-c2ncccn2)nc1 (single isomer, unassigned) [Example 134, 2-(2,2′-Bipyrimidin-5-yl)-1-ethyl-7-fluoro-6-methoxy-1,2,3,4-tetrahydroisoquinoline] | 54
CCC1c2cc(F)c(OC)cc2CN1c1ccnc(C(=O)NC)n1 (single isomer, unassigned) [Example 110, 4-(1-Ethyl-6-fluoro-5-methoxyisoindolin-2-yl)-N-methylpyrimidine-2-carboxamide] | 3000
CCC1c2ccccc2CCN1c1cnc(-c2ncccn2)nc1 (single isomer, unassigned) [Example 11, 2-([2,2′-Bipyrimidin]-5-yl)-1-ethyl-1,2,3,4-tetrahydroisoquinoline] | 1400
CCC1c2cc(F)c(OC)cc2CN1c1ccnc(-c2ncccn2)n1 (single isomer, unassigned) [Example 65, 2-([2,2′-Bipyrimidin]-4-yl)-1-ethyl-6-fluoro-5-methoxyisoindoline] | 230
CCCC1c2ccc(F)c(F)c2CCN1c1ccnc(-c2ncccn2)n1 (single isomer, unassigned) [Example 130, 2-([2,2′-Bipyrimidin]-4-yl)-5,6-difluoro-1-propyl-1,2,3,4-tetrahydroisoquinoline] | 97
CCC1c2ccc(F)c(F)c2CCN1c1ccnc(-c2ncccn2)n1 (single isomer, unassigned) [Example 40, 1-Ethyl-5,6-difluoro-2-(2-pyrimidin-2-ylpyrimidin-4-yl)-3,4-dihydro-1H-isoquinoline] | 500
CCC1c2cc(F)c(F)cc2CN1c1cnc(C(=O)O)nc1 (single isomer, unassigned) [Example 117, 5-(1-Ethyl-5,6-difluoroisoindolin-2-yl)pyrimidine-2-carboxylic Acid] | 15000
CCC1c2cc(F)c(F)cc2CN1c1ccnc(-c2ncccn2)n1 (single isomer, unassigned) [Example 50, 2-([2,2′-Bipyrimidin]-4-yl)-1-ethyl-5,6-difluoroisoindoline] | 400
CCC1c2cc(F)c(OC)cc2CCN1c1cnc(C(=O)O)nc1 (single isomer, unassigned) [Example 115, 5-(1-Ethyl-7-fluoro-6-methoxy-3,4-dihydro-1H-isoquinolin-2-yl)pyrimidine-2-carboxylic Acid] | 6000
CCC1c2ccc(F)c(F)c2CCN1c1ccnc(-c2ncccn2)n1 (single isomer, unassigned) [Example 41, 1-Ethyl-5,6-difluoro-2-(2-pyrimidin-2-ylpyrimidin-4-yl)-3,4-dihydro-1H-isoquinoline] | 2600
CCC1c2cc(F)c(OC)cc2CN1c1cnc(C(=O)Nc2ccccn2)nc1 (single isomer, unassigned) [Example 108, 5-(1-Ethyl-6-fluoro-5-methoxyisoindolin-2-yl)-N-(pyridin-2-yl)pyrimidine-2-carboxamide] | 560
